Measurements published in patent US11230541B2, “Heterocyclic compound” (Takeda Pharmaceutical Company Limited, priority 2017, dated 2022).

Biological target: T1, NMDA receptor composed of four subunits including 2 sets of heterodimers of NR1 and NR2B (Homo sapiens, UniProt Q13224)
T1 construct: host or cells: HEK293 (tetracycline-induced expression)
Assay: NR2B Ca2+ influx assay (FLIPR, Fluo-4) in HEK293 cells expressing human GRIN1 and GRIN2B
Type: cell-based
Settings: HEK293, 10 μM final compound concentration, glutamic acid/glycine-induced Ca2+ influx, read-out: inhibitory rate (10 μM compound concentration)
Procedure, shortened: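 Tetracycline-induced (2 h) HEK293 cells expressing human GRIN1/GRIN2B, Fluo-4-loaded, were preincubated 15 min at room temperature with compound at 10 μM final. FLIPR recorded Ca2+ influx every 3 s for 5 min after glutamate/glycine addition (30 μM in added buffer); inhibition from cumulative fluorescence relative to agonist-free wells.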

T1 sequence (Q13224 27-1484, other chains not shown): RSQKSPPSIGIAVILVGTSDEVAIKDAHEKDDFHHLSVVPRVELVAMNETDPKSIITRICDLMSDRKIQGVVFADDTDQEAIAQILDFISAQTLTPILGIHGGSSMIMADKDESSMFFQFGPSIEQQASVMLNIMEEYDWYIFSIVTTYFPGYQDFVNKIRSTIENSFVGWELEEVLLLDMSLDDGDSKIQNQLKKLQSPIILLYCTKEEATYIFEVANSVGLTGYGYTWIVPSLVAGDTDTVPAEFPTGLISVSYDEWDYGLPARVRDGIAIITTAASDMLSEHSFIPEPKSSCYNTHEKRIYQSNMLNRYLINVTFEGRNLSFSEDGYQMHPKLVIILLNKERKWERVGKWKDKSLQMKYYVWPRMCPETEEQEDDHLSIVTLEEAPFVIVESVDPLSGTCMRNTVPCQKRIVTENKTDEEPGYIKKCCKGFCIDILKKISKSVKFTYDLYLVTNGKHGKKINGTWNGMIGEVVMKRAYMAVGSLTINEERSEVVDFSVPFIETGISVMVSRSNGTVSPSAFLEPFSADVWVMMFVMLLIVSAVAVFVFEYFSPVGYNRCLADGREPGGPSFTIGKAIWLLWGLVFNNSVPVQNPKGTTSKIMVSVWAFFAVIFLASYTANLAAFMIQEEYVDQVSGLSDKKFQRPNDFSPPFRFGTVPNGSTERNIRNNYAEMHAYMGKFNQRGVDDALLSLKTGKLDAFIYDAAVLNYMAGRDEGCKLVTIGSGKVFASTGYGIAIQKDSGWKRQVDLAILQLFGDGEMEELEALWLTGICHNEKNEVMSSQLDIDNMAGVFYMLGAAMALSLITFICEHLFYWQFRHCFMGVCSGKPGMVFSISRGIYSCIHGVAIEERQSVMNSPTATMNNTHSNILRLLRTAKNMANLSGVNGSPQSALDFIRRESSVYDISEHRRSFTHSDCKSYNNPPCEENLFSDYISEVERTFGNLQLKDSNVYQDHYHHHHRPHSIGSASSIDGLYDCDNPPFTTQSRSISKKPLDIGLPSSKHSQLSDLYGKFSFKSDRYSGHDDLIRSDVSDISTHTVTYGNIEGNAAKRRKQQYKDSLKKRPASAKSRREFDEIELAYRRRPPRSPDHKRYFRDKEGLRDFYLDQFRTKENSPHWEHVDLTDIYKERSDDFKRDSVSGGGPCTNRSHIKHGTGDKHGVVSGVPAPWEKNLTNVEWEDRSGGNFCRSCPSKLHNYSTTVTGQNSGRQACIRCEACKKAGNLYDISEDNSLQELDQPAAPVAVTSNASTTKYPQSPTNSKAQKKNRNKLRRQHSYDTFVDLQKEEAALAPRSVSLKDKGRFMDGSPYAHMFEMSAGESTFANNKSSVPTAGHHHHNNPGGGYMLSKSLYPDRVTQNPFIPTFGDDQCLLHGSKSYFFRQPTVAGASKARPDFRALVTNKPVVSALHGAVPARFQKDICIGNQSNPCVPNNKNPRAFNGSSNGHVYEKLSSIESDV

| Compound | inhibition at 10 µM [%] |
| --- | --- |
| Cc1ccc2[nH]nnc2c1CNC(=O)c1cnc(OC(F)F)c(F)c1 [Example 268, 6-(difluoromethoxy)-5-fluoro-N-((5-methyl-1H-benzotriazol-4-y1)methyl)nicotinamide] | 97 |
| COc1ccc2[nH]nnc2c1CNC(=O)c1ccc(OC(F)(F)F)c(F)c1 [Example 227, 3-fluoro-N-((5-methoxy-1H-benzotriazol-4-yl)methyl)-4-(trifluoromethoxy)-benzamide] | 97 |
| COc1ccc2ncn(C)c2c1CNC(=O)c1cc(C)c(OC)c(C)c1 [Example 35, 4-methoxy-N-((6-methoxyl-methyl-1H-benzimidazol-7-yl)methyl)-3,5-dimethylbenzamide] | 77 |
| COc1ccc2ncn(C)c2c1CNC(=O)Nc1ccc(OC(F)(F)F)cc1 [Example 223, 1-((6-methoxy-1-methyl-1H-benzimidazol-7-yl)methyl)-3-(4-(trifluoromethoxy)-phenyl)urea] | 83 |
| COc1ccc2nc(C)n(C)c2c1CNC(=O)c1ccc(C(F)F)c(F)c1 [Example 242, 4-(difluoromethyl)-3-fluoro-N-((6-methoxy-1,2-dimethyl-lH-benzimidazol-7-yl)methyl)benzamide] | 69 |
| COc1ccc2nc(C)n(C)c2c1CNC(=O)c1cnc(OC(F)F)c(F)c1 [Example 251, 6-(difluoromethoxy)-5-fluoro-N-((6-methoxy-1,2-dimethyl-1H-benzimidazol-7-yl)methyl)nicotinamide] | 76 |
| COc1ccc2ncn(C)c2c1CNC(=O)c1cc(F)c(OC(F)F)c(F)c1 [Example 161, 4-(difluoromethoxy)-3,5-difluoro-N-((6-methoxy-1-methyl-1H-benzimidazol-7-yl)methyl)benzamide] | 92 |

Results, then the compound that gave them:

| inhibition at 10 µM [%] | Compound |
| --- | --- |
| 94 | O=C(NCc1c(C2CC2)ccc2[nH]ncc12)c1cc(F)c(Cl)c(F)c1 [Example 90, 4-chloro-N-((5-cyclo-propyl-1H-indazol-4-yl)methyl)-3,5-difluorobenzamide] |
| 93 | O=C(NCc1c(C2CC2)ccc2[nH]nnc12)c1ccc(OC(F)F)c(F)c1 [Example 212, N-((5-cyclopropyl-1H-benzotriazol-4-yl)methyl)-4-(difluoromethoxy)-3-fluorobenzamide] |
| 93 | O=C(NCc1c(C2CC2)ccc2[nH]ncc12)c1ccc(OC(F)(F)F)c(F)c1 [Example 88, N-((5-cyclopropyl-1H-indazol-4-yl)methyl)-3-fluoro-4-(trifluoro-methoxy)benzamide] |
| 88 | COCc1ccc2ncn(C)c2c1CNC(=O)c1cc(F)c(OC)c(F)c1 [Example 279, 3,5-difluoro-4-methoxy-N-{[6-(methoxymethyl)-1-methyl-1H-benzimidazol-7-yl]methyl}benzamide] |
| 90 | COc1ncc(C(=O)NCc2c(C3CC3)ccc3ncn(C)c23)cc1F [Example 20, N-((6-cyclopropyl-1-methyl-1H-benzimidazol-7-yl)methyl)-5-fluoro-6-methoxynicotinamide] |
| 86 | O=C(NCc1cccc2[nH]ncc12)c1ccc(C(F)F)c(Cl)c1 [Example 190, 3-chloro-4-(difluoromethyl)-N-(1H-indazol-4-ylmethyl)benzamide] |
| 94 | O=C(NCc1c(C2CC2)ccc2[nH]nnc12)c1cnc(OC(F)F)c(F)c1 [Example 226, N-((5-cyclopropyl-1H-benzotriazol-4-yl)methyl)-6-(difluoromethoxy)-5-fluoronicotinamide] |
| 93 | COc1ncc(C(=O)NCc2c(C3CC3)ccc3[nH]ncc23)cc1F [Example 96, N-((5-cyclopropyl-1H-indazol-4-yl)methyl)-fluoro-6-methoxy-nicotinamide] |
| 94 | O=C(NCc1cccc2[nH]ncc12)c1ccc(OC(F)F)c(F)c1 [Example 192, 4-(difluoromethoxy)-3-fluoro-N-(1H-indazol-4-ylmethyl)benzamide] |
